Experimental data reported in patent US20250312296A1, “PETROLATUM-BASED PHMB COMPOSITIONS AND METHODS FOR THE TREATMENT OF INFLAMMATORY SKIN DISEASE” (GLOBAL HEALTH SOLUTIONS, INC., priority 2020, published 2025).
“And” between values parts separate entries of the source, which are not always exact repeats. Equal entries are not always repeated.

System: Rabbit Skin
Assay: Rabbit skin irritation
Method: Within 24 hours to 4 hours before test application, the backs of female albino New Zealand White rabbits were clipped free of hair, exposing 2 test and 2 control areas on each side of the spine with a size of approximately 15 cm×15 cm. The two test sites are located on the left cranial section and the right caudal section of the dorsal region. The two control sites are located on the left caudal and right cranial section of the dorsal region. FIG. 4 depicts the arrangement of test and control sites. The exposed skin is wiped with alcohol and dried. Rabbits of acceptable skin quality were selected and used for testing.
A 25×25 mm gauze patch saturated with 0.5 mL of 0.9% NaCl is used for the control and applied to the clipped control sites. The patches are secured using hypoallergenic, waterproof, surgical tape over the test and control sites. The animal's trunk is securely wrapped so as to maintain the position of the patches. Patches are left applied for a minimum of four hours.
After patch removal, the test and control sites were then scored for erythema and edema at 1, 24, 48 and 72 hours after patch removal. Only the 24, 48, and 72 hour observations were scored and used for calculations. If no response was expected, testing was conducted using three animals per test article. If irritation was anticipated, one animal was tested initially. If the first animal received a score of 2 or less for either erythema or edema, 2 additional rabbits were used to conclude the test.
This total was divided by the total number of observations. The same was done for the control sites. […] These scores for each animal were added and divided by the total number of animals to give the Primary Irritation Index. […] For any response, the Maximum Irritation Response, the time of onset of the response and the time of maximum response was recorded.
To positively validate the test, 10% sodium dodecyl sulfate (SDS), which is a known dermal irritant, in petroleum jelly was applied to a 2.5 cm×2.5 cm gauze patch. As a negative control, 0.5 mL of 0.9% NaCl was applied to a 2.5 cm×2.5 cm gauze patch. A Primary Irritation Index in the moderate to severe range is considered a positive result. The test system and methods utilized were the same as described above.

[1] = per rabbit, scores of 24, 48 and 72 hour observations added, patch at least four hours, sulfate

SMILES: CCCCCCCCCCCCOS(=O)(=O)[O-].[Na+] [10% SDS, sodium dodecyl sulfate]
- Primary Irritation Index (3 animals, 0-0.4 Negligible, 0.5-1.9 Slight, 2-4.9 Moderate, 5-8 Severe): Total Average (19.3) = 6.4 Primary Irritation Index
- ED (edema) score [1]: 19 and 21 and 14
- ER (erythema) score [1]: 21 and 23 and 18
- ER + ED = Total (per rabbit, scores of 24, 48 and 72 hour observations added, sulfate): 40 and 44 and 32
